Series [1] deals with Caco-2 cell monolayers. In words: Bidirectional transport across Caco-2 cell monolayer. The series is classed as in vitro ADME, human. Conditions: 50 μmol/L, no inhibitor. The protocol:
The cells were seeded at a density of approximately 10^5 cells/cm^2 on TranswellTM filter (Corning Inc., Lowell, MA) and cultured for 21 d before use. Cell monolayer integrity was controlled by the measurement of trans-epithelial electrical resistance (TEER) with an EVOM epithelial voltammeter equipped with an electrode (World Precision Instruments, Sarasota, FL, United States). […] (a) R(%)=CBL×VBL/CAP×VAP×100 In this, R represents the absorption rate (as a percentage); CBL is the anthocyanin concentration of the BL side (in μM); VBL is the volume of anthocyanins from the BL (in L); CAP is the initial anthocyanin concentration of the AP side (in μM), and VAP is the volume of anthocyanins in the AP chamber (in L). The absorption rate of anthocyanins from BL to AP is calculated using the following Equation b: (b) R(%)=CAP×VAP/CBL×VBL×100 In this, R represents the absorption rate (as a percentage); CAP is the anthocyanin concentration from the AP side (in μM); VAP is the volume of anthocyanins in the AP chamber (in mL); CBL is the initial concentration from the BL side (in μM) and VBL is the volume of anthocyanins in the BL chamber (in L).

Series [2] concerns HepG2 cells. The series is described as follows: TG and TC content in OA-induced high-fat HepG2 cells. Conditions: 1 mM OA high-fat model vs control group. The series is classed as cell-based, human. As for the experimental part:
For high fat HepG2 model: […] Afterwards, cells were harvested and lysed. […] For TG and TC assay: […] The medium was removed and the cells were washed twice with PBS. The levels of triglycerides (TG) and total cholesterol (TC) in the cells were determined according to the instructions of test kits.

The test system of series [3] is Fasn. In words: Western blot of Fasn protein in Caco-2/HepG2 co-culture. The series is classed as cell-based, human. Conditions: 1 mM OA vs. control, p < 0.01. As for the experimental part: Cells from the co-culture model were lysed and supernatants were collected. The protein concentrations were determined using the BCA Protein Quantitation Kit. Then electrophoresis of samples was conducted using a SDS-PAGE kit (Beyotime Biotechnology) following the manufacturer’s instructions and transferred to poly-vinylidene difluoride (PVDF) membrane. Next, membranes were incubated in 5% nonfat milk to block non-specific antibody binding for 30 min at room temperature and followed by incubating with primary antibodies and secondary antibodies. Chemiluminescence based-images of the blots were acquired using ImageQuant LAS 500 system (GE, United States). Protein bands were quantified using ImageJ (version 1.53a) software. The changes in expression levels of these proteins detected finally are used to evaluate the sample’s effect on lipid metabolism.
For orientation: A western blot detects proteins with antibodies after separation by electrophoresis.

Take `O=C1OC2(c3ccc(O)cc3Oc3cc(O)ccc32)c2ccccc21` [Fluorescin, Fluorescein, reference compound]: the “ER (efflux rate)” value in series [1] (30 min) is recorded as 0.56; in series [1] (60 min), 0.34; in series [1] (90 min), 0.3; in series [1] (120 min) it was 0.27; in series [1] (150 min), 0.25. Also, the “Papp (AP → BL)” value in series [1] (30 min) is 5.75 ± 0.17 ×10^−5 cm /s; in series [1] (60 min), 5.07 ± 1.72 ×10^−5 cm /s; in series [1] (90 min) it was 4.59 ± 2.21 ×10^−5 cm /s; in series [1] (120 min), 4.6 ± 2.63 ×10^−5 cm /s; in series [1] (150 min), 4.65 ± 2.94 ×10^−5 cm /s.

Turning to `CCCCCCCC/C=C\CCCCCCCC(=O)O` [OA, Oleic acid], in series [2], the “increase of TC level” value came out at 12% and the “increase of TG level” value was found to be 22%. Also, the “Fasn protein expression level” value in series [3] was 1.59 ± 0.16 fold.
